The values below come from ChEMBL document CHEMBL1743141, “Membrane transporters in drug development” (Nat Rev Drug Discov, 2010).

Format in all cases: ADME
Data set [1] addresses T1, Solute carrier organic anion transporter family member 1A2 (Homo sapiens, UniProt P46721).
T1 sequence (P46721 whole entry): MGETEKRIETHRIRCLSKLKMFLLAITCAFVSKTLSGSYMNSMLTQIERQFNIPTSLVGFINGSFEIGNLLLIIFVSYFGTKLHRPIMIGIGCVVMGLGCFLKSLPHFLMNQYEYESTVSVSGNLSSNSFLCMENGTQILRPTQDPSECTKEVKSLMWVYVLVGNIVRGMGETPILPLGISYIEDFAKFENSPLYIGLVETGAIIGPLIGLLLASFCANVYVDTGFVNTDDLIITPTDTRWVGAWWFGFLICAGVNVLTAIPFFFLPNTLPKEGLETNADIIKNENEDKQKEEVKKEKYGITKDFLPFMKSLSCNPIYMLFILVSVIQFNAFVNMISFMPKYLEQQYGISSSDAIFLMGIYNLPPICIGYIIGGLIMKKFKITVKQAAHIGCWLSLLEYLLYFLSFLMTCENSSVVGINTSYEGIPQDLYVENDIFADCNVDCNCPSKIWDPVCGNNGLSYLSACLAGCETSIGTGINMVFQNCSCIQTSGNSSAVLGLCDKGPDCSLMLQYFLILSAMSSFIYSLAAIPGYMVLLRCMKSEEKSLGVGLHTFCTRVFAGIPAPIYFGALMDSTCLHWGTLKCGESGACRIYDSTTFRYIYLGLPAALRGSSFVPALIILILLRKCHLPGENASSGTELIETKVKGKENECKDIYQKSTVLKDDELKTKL
Put plainly: Substrates of transporters of clinical importance in the absorption and disposition of drugs, OATP1A2.

Data set [2] has as its target T2, Solute carrier organic anion transporter family member 1B1 (Homo sapiens, UniProt Q9Y6L6).
T2 sequence (Q9Y6L6 whole entry): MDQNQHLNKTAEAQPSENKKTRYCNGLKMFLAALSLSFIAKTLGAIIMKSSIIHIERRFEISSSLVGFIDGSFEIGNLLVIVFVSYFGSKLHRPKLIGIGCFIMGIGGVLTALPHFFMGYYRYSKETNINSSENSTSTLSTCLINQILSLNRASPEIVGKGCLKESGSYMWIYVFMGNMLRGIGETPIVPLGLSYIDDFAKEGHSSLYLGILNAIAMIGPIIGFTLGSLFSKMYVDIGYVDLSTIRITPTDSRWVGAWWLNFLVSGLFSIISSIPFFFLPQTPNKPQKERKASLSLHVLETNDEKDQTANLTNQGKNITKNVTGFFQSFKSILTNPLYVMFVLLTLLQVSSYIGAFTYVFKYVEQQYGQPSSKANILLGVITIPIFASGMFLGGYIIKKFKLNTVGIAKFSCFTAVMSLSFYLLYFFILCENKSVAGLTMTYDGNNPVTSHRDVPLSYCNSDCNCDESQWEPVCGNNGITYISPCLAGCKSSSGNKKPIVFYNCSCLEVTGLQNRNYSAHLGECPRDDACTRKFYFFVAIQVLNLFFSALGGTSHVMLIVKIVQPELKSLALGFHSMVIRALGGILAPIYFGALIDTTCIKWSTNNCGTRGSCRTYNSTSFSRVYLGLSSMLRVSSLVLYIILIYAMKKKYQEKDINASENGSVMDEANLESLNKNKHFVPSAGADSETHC
As to the kind of experiment: Substrates of transporters of clinical importance in the absorption and disposition of drugs, OATP1B1.

The target in data set [3] is T3, Solute carrier organic anion transporter family member 1B3 (Homo sapiens, UniProt Q9NPD5).
T3 sequence (Q9NPD5 whole entry): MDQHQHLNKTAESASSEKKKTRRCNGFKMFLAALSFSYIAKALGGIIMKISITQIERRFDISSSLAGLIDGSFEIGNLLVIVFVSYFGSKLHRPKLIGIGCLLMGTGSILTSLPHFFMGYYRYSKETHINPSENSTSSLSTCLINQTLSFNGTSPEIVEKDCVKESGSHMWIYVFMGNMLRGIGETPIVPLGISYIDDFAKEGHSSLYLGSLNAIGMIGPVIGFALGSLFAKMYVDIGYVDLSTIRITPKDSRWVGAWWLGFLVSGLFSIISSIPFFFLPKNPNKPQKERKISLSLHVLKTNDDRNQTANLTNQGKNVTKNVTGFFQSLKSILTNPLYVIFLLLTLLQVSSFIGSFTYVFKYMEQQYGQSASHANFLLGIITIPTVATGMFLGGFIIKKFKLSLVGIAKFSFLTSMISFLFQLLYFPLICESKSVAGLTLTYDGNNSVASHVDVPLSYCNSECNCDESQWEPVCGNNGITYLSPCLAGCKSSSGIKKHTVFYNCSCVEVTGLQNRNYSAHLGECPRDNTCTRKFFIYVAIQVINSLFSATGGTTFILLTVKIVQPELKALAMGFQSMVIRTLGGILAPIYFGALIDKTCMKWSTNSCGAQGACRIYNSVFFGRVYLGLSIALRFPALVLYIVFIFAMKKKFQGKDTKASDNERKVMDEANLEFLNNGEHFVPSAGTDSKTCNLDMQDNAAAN
As to the kind of experiment: Substrates of transporters of clinical importance in the absorption and disposition of drugs, OATP1B3.

In data set [4] the target is T4, Solute carrier organic anion transporter family member 2B1 (Homo sapiens, UniProt O94956).
T4 sequence (O94956 whole entry): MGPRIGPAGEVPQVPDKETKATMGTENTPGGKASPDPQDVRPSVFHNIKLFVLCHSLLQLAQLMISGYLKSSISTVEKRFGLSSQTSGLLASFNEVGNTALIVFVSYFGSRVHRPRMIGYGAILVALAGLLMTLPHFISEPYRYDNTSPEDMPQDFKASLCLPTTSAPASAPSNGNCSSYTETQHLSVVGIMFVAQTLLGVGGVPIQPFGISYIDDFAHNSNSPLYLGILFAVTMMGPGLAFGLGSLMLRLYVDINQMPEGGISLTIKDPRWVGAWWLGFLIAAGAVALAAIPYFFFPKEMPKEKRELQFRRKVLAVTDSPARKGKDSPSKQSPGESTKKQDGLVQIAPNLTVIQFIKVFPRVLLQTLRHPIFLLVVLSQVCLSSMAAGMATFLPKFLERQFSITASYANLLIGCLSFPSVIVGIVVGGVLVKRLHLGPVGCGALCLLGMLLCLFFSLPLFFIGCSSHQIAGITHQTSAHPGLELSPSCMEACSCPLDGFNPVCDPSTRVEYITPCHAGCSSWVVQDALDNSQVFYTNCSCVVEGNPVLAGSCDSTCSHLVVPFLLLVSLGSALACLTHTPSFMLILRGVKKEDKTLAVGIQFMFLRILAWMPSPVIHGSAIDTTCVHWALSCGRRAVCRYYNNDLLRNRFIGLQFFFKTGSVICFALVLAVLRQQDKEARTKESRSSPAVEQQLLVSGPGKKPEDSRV
Put plainly: Substrates of transporters of clinical importance in the absorption and disposition of drugs, OATP2B1.

In data set [5] the target is T5, Solute carrier family 22 member 2 (Homo sapiens, UniProt O15244).
T5 sequence (O15244 whole entry): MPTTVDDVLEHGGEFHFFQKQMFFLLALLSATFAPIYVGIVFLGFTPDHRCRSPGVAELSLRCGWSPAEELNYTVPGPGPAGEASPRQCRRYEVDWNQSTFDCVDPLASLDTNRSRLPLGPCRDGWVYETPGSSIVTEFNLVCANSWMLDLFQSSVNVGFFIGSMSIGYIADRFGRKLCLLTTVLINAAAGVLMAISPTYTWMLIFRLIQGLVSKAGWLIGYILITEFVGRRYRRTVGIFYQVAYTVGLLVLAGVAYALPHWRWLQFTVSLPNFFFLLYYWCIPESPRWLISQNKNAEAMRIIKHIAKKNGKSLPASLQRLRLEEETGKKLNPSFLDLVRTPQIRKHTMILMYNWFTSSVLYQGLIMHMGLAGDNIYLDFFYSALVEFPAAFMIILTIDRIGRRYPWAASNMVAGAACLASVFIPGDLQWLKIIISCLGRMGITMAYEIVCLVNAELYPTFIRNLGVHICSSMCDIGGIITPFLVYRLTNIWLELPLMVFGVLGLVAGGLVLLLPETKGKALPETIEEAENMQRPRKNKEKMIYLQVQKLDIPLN
Put plainly: Inhibitors of transporters of clinical importance in the absorption and disposition of drugs, OCT2.

For data set [6], the target named is Phosphatidylcholine translocator ABCB4 (Homo sapiens, UniProt P21439). As to the kind of experiment: Substrates of transporters of clinical importance in the absorption and disposition of drugs, MDR3.
Sequence of Phosphatidylcholine translocator ABCB4 (P21439 whole entry): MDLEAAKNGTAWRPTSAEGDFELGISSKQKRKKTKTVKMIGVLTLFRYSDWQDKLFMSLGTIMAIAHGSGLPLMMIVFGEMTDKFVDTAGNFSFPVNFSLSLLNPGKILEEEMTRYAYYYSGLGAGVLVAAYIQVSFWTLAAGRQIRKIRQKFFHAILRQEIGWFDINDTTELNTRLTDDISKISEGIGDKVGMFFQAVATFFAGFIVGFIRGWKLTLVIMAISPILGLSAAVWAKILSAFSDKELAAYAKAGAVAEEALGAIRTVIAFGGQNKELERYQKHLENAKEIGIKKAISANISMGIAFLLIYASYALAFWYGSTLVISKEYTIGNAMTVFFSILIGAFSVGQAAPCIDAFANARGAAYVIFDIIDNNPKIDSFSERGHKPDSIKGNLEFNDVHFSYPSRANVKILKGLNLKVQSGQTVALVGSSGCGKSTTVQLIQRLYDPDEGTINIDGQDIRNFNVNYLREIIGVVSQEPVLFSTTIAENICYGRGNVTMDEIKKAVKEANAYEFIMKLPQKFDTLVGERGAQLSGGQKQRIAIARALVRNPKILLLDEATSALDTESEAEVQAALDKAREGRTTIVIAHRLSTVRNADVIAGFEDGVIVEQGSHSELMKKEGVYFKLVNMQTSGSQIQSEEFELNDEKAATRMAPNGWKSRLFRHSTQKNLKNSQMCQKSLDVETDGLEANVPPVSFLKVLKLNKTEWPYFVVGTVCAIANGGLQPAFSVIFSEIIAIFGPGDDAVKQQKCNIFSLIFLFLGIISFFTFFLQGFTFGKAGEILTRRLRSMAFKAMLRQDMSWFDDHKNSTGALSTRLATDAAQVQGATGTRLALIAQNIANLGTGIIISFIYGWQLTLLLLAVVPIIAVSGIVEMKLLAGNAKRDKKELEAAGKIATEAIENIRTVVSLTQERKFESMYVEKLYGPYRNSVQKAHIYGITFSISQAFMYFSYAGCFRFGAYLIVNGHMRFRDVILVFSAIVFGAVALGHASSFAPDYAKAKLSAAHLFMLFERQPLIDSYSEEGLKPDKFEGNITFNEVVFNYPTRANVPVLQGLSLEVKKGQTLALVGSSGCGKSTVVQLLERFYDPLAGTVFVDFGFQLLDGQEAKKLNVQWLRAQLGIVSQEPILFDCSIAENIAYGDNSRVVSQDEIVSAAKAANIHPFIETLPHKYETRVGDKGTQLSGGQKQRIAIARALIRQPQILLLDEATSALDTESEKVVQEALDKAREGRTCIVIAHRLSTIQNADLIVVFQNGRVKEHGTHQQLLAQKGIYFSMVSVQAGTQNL
Data set [7] deals with T6, Solute carrier family 22 member 1 (Homo sapiens, UniProt O15245).
T6 sequence (O15245 whole entry): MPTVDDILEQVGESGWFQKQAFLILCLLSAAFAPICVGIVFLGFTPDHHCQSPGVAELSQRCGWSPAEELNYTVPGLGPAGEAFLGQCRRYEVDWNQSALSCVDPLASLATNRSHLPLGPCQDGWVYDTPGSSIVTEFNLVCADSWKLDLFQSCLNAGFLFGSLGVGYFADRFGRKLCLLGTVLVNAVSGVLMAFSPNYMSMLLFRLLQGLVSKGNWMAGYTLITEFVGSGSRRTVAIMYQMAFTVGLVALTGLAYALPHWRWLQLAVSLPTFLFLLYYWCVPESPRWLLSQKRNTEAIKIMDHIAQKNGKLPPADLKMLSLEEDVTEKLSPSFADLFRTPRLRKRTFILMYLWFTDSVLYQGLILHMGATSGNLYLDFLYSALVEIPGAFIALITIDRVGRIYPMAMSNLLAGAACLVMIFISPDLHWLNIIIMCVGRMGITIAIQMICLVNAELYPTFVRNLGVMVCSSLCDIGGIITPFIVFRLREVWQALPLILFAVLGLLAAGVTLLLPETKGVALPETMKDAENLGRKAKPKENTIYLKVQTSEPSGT
Put plainly: Substrates of transporters of clinical importance in the absorption and disposition of drugs, OCT1.

The target in data set [8] is T5, Solute carrier family 22 member 2. As to the kind of experiment: Substrates of transporters of clinical importance in the absorption and disposition of drugs, OCT2.
Data set [9] concerns the target ATP-dependent translocase ABCB1 (Homo sapiens, UniProt P08183). As to the kind of experiment: Substrates of transporters of clinical importance in the absorption and disposition of drugs, MDR1.
Data set [10] deals with T7, Organic anion transporter 3 (Homo sapiens, UniProt Q8TCC7).
T7 sequence (Q8TCC7 whole entry): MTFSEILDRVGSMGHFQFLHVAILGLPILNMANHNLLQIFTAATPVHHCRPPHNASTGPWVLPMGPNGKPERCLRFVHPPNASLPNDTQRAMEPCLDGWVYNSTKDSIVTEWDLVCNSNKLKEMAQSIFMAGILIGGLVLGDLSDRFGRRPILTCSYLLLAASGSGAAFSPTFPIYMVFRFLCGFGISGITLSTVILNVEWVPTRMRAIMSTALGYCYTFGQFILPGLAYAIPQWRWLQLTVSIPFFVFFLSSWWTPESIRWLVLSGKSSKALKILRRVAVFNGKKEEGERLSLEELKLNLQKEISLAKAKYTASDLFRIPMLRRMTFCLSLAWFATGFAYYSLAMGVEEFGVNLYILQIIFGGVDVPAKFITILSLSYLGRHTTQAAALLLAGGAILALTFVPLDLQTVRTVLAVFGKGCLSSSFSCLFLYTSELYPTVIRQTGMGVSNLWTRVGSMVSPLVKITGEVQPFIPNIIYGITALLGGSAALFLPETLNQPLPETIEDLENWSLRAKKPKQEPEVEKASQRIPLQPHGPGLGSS
As to the kind of experiment: Substrates of transporters of clinical importance in the absorption and disposition of drugs, OAT3.

Sequence of ATP-dependent translocase ABCB1 (P08183 whole entry): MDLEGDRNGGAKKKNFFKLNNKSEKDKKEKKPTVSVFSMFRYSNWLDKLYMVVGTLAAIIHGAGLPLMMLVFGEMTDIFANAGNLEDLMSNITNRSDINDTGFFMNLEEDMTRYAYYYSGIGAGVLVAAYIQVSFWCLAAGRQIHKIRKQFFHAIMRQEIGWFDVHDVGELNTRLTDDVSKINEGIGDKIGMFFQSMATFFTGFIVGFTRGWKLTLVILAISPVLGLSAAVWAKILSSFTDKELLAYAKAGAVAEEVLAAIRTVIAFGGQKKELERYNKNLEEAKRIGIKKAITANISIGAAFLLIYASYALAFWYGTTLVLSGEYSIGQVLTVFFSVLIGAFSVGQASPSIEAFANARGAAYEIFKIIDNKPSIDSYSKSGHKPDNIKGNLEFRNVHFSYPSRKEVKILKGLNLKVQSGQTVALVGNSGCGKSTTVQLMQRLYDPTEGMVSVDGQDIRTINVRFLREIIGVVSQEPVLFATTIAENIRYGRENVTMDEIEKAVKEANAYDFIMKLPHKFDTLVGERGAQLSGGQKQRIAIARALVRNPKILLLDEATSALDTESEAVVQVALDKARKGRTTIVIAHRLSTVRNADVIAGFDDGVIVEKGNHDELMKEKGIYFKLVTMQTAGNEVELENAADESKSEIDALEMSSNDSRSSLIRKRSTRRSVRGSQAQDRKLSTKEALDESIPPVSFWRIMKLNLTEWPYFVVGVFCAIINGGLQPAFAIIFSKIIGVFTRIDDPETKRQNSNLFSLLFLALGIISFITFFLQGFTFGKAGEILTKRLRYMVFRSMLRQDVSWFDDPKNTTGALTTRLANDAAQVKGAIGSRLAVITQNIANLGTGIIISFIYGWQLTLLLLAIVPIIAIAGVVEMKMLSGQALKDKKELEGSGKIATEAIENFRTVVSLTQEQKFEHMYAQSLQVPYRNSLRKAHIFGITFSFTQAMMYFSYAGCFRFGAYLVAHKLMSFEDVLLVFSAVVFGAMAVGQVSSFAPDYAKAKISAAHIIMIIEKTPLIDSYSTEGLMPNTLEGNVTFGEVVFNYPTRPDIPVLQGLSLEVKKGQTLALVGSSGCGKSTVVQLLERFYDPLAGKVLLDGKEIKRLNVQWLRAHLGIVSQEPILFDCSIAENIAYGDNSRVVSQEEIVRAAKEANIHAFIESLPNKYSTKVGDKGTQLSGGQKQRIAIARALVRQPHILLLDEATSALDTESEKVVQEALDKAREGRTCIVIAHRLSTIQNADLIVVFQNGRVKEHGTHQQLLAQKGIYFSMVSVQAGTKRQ

In the case of `O=C1OC(c2ccc(O)c(S(=O)(=O)[O-])c2)(c2ccc(O)c(S(=O)(=O)[O-])c2)c2c(Br)c(Br)c(Br)c(Br)c21.[Na+].[Na+]` [SULFOBROMOPHTHALEIN SODIUM], the Activity entry in [1], in data set [2], in data set [3] and in data set [4] was “transporter substrate” throughout.

For `Cc1cccc(C)c1NC(=O)CC12CCCN1CCC2` [PILSICAINIDE], the Activity entry in data set [5] was “transporter inhibitor”.

On to `CCCCCCCCCCCCCCSCC(=O)OC[C@H](COP(=O)([O-])OCC[N+](C)(C)C)OC(=O)CSCCCCCCCCCCCCCC` [PHOSPHATIDYLCHOLINE], for which the Activity result in data set [6] is “transporter substrate”.

With `CN/C(=N/CCSCc1nc[nH]c1C)NC#N` [CIMETIDINE], the Activity result in [5] is reported as “transporter inhibitor”.

With OXALIPLATIN, the Activity entry in data set [7] and in data set [8] was “transporter substrate” throughout.

For `O=C(O)COCCN1CCN(C(c2ccccc2)c2ccc(Cl)cc2)CC1` (stereo not given) [CETIRIZINE], the Activity entry in data set [5] is reported as “transporter inhibitor”.

Consider `CC[C@]1(O)C[C@@H]2CN(CCc3c([nH]c4ccccc34)[C@@](C(=O)OC)(c3cc4c(cc3OC)N(C)[C@H]3[C@@](O)(C(=O)OC)[C@H](OC(C)=O)[C@]5(CC)C=CCN6CC[C@]43[C@@H]65)C2)C1` [VINBLASTINE], for which the Activity result in data set [9] and in [6] was “transporter substrate” throughout.

In the case of `CC(=O)O[C@H]1C(=O)[C@@]2(C)[C@H]([C@H](OC(=O)c3ccccc3)[C@]3(O)C[C@H](OC(=O)[C@H](O)[C@@H](NC(=O)c4ccccc4)c4ccccc4)C(C)=C1C3(C)C)[C@]1(OC(C)=O)CO[C@@H]1C[C@@H]2O` [PACLITAXEL], the Activity result in [9] and in [6] was “transporter substrate” in each case.

Consider `C[C@]12CC[C@@H]3c4ccc(OS(=O)(=O)O)cc4CC[C@H]3[C@@H]1CCC2=O` [ESTRONE SULFURIC ACID], for which the Activity result in data set [1], in data set [10], in [2] and in data set [4] was “transporter substrate” each time.

For `C[C@H]1O[C@@H](O[C@H]2[C@@H](O)C[C@H](O[C@H]3[C@@H](O)C[C@H](O[C@H]4CC[C@@]5(C)[C@H](CC[C@@H]6[C@@H]5C[C@@H](O)[C@]5(C)[C@@H](C7=CC(=O)OC7)CC[C@]65O)C4)O[C@@H]3C)O[C@@H]2C)C[C@H](O)[C@@H]1O` [DIGOXIN], the Activity result in data set [9] and in data set [6] was “transporter substrate” in each case.
